Experimental data from patent publication US12398154B2, “Azaquinazoline pan-KRas inhibitors” (Mirati Therapeutics, Inc., priority 2020, dated 2025).

Columns and labels:
[1] = tested on: phospho-ERK in AsPC-1 (G12D) cells; assay: Inhibition of KRas-mediated phosphorylation of ERK (in-cell western); format: cell-based; settings: Homo sapiens, ASPC1, 3 h, 3 hours compound, phospho-ERK normalized to GAPDH
Experimental: (§1) Diluted compounds were then added in a final concentration of 0.5% DMSO. After 3 hours, 50 μL of 4.0% formaldehyde was added and the plates incubated at room temperature for 20 minutes. The plates were then dumped and permeabilized with 150 μL of ice cold 100% methanol for 10 minutes.
(§2) The amount of phospho-ERK was determined using an antibody specific for the phosphorylated form of ERK and compared to the amount of GAPDH. […] The plates were incubated overnight at 4° C. The plates were washed 3× with 150 uL PBS+0.1% Tween 20.
(§3) The plates were washed 3× with 150 uL PBS+0.1% Tween 20. Plates were imaged dry on a Li-COR Odyssey CLX plate reader.
(§4) The phospho-ERK (Thr202/Tyr204) signal was normalized to the GAPDH signal for each well and percent of DMSO control values were calculated. IC50 values were generated using a 4-parameter fit of the dose response curve.

[2] = tested on: phospho-ERK in NCI-H727 (G12V) cells; assay: as above; format: cell-based; settings: Homo sapiens, NCI-H727, 3 h, 3 hours compound, phospho-ERK normalized to GAPDH
Experimental: as §1, §2, §3, §4

[3] = tested on: phospho-ERK in NCI-H460 (Q61H) cells; assay: as above; format: cell-based; settings: Homo sapiens, NCI-H460, 3 h, 3 hours compound, phospho-ERK normalized to GAPDH
Experimental: as §1, §2, §3, §4

pERK in PSN1 cells = assay: Inhibition of KRas phosphorylation of ERK (Cisbio HTRF pERK assay); settings: Homo sapiens, PSN1, 3 h, read-out: Inhibition (HTRF IC50) of KRas-mediated Phosphorylation of ERK, PSN1
KRas G12R = KRas G12R (Homo sapiens, UniProt P01116, G12R); assay: biochemical;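 further: TR-FRET displacement assay of compound binding to KRas, read after one hour at room temperature, potency from a four-parameter fit of percent-of-control values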
Experimental: (§5) The ability of a compound to bind to KRas was measured using a TR-FRET displacement assay. […] After a 60-minute incubation at room temperature, the reaction was measured using a BMG LABTECH CLARIO star Plus via TR-FRET. […] The POC values were fit to a 4-parameter IC50 equation and the IC50 value reported.

KRas G12D = KRas G12D (Homo sapiens, UniProt P01116, G12D); assay: biochemical;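 further: TR-FRET displacement binding assay on KRas, read after a one-hour incubation at room temperature, IC50 fitted from percent-of-control values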
Experimental: as §5

KRas G12V = KRas G12V (Homo sapiens, UniProt P01116, G12V); assay: biochemical;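 further: KRas binding measured by TR-FRET displacement at room temperature, IC50 fitted from percent of control values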
Experimental: as §5

pERK in MKN1 cells = assay: Inhibition of KRas phosphorylation of ERK (Cisbio HTRF pERK assay); settings: Homo sapiens, MKN-1, 3 h, read-out: Inhibition (HTRF IC50) of KRas-mediated Phosphorylation of ERK, MKN1
KRas G12A = KRas G12A (Homo sapiens, UniProt P01116, G12A); assay: biochemical;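 further: binding to KRas measured by TR-FRET displacement after one hour at room temperature, IC50 from a four-parameter fit of percent-of-control values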
Experimental: as §5

KRas G12S = KRas G12S (Homo sapiens, UniProt P01116, G12S); assay: biochemical;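 further: TR-FRET displacement binding to KRas, read after one hour incubation at room temperature, IC50 from four-parameter fit of percent of control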
Experimental: as §5

KRas WT = KRas WT (Homo sapiens, UniProt P01116); assay: biochemical;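 further: binding to KRas read as TR-FRET displacement after a one-hour room-temperature incubation, IC50 derived from percent-of-control values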
Experimental: as §5

KRas G12C = KRas G12C (Homo sapiens, UniProt P01116, G12C); assay: biochemical;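 further: binding to KRas assessed by TR-FRET displacement after one hour incubation at room temperature, potency fitted from percent-of-control values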
KRas G12C, sequence (P01116 1-169 isoform P01116-2 G12C): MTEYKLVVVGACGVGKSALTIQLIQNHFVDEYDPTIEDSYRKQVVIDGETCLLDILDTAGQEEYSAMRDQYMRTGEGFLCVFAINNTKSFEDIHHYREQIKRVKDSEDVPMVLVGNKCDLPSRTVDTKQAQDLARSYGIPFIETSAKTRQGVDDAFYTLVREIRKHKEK
Experimental: as §5

KRas G12D, sequence (P01116 1-169 isoform P01116-2 G12D): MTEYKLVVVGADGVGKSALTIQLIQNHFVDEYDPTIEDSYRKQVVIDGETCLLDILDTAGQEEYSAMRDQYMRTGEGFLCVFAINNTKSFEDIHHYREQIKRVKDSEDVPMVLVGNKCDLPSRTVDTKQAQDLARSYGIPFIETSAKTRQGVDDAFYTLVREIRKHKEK
KRas G12V, sequence (P01116 1-169 isoform P01116-2 G12V): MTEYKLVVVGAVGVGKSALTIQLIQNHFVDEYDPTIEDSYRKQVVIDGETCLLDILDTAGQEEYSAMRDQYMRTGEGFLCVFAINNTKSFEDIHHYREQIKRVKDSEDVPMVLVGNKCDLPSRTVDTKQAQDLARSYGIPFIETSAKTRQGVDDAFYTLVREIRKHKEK
KRas G12R, sequence (P01116 1-169 isoform P01116-2 G12R): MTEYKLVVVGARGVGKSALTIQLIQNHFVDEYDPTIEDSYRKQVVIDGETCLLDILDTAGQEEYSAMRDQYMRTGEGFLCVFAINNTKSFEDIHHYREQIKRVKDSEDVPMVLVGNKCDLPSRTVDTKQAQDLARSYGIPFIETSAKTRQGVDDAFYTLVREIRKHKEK
KRas WT, sequence (P01116 1-169 isoform P01116-2): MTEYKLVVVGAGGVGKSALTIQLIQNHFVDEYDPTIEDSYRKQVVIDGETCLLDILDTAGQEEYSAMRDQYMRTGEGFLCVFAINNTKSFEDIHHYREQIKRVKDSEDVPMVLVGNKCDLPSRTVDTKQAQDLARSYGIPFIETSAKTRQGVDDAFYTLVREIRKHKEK
KRas G12A, sequence (P01116 1-169 isoform P01116-2 G12A): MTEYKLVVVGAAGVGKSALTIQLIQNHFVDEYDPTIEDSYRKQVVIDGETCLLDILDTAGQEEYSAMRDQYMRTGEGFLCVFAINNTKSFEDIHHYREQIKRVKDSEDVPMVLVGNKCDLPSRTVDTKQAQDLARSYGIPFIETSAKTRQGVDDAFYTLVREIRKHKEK
KRas G12S, sequence (P01116 1-169 isoform P01116-2 G12S): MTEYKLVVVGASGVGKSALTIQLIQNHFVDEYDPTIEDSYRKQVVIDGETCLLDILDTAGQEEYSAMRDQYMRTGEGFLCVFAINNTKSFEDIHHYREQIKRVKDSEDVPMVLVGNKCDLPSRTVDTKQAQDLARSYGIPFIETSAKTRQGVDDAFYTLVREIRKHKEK

IC50 (pERK in PSN1 cells) [nM] | IC50 (KRas G12R) [nM] | IC50 (KRas G12D) [nM] | IC50 (KRas G12V) [nM] | IC50 (pERK in MKN1 cells) [nM] | IC50 (KRas G12A) [nM] | IC50 (KRas G12S) [nM] | IC50 (KRas WT) [nM] | IC50 (KRas G12C) [nM] | Structure (SMILES) | IC50 [1] [nM] | IC50 [2] [nM] | IC50 [3] [nM]
 | 14 | 25 | 6 |  |  |  |  |  | CCc1c(F)ccc2cc(O)cc(-c3ncc4c(N5CCC[C@@]6(CNC(=O)C6)C5)nc(OC[C@]56CCCN5C[C@@H](O)C6)nc4c3F)c12 [Example 305, (R)-7-(7-(8-ethyl-7-fluoro-3-hydroxynaphthalen-1-yl)-8-fluoro-2-(((2S,7aR)-2-hydroxytetrahydro-1H-pyrrolizin-7a(5H)-yl)methoxy)pyrido[4,3-d]pyrimidin-4-yl)-2,7-diazaspiro[4.5]decan-3-one] | ≥ 10000 | ≥ 10000 | ≥ 10000
≥ 10000 | 9 | 54 | ≤ 2 | 154 |  |  |  |  | CCc1c(F)ccc2cc(O)cc(-c3ncc4c(Nc5cnn(-c6ccncc6)c5)nc(OC[C@@]56CCCN5C[C@H](F)C6)nc4c3F)c12 [Example 297, 5-ethyl-6-fluoro-4-(8-fluoro-2-(((2R,7aS)-2-fluorohexahydro-1H-pyrrolizin-7a-yl)methoxy)-4-((1-(pyridin-4-yl)-1H-pyrazol-4-yl)amino)pyrido[4,3-d]pyrimidin-7-yl)naphthalen-2-ol] | 3430 | 450 | 660
≥ 10000 | ≤ 2 | 16 | ≤ 2 | 3 |  |  |  |  | CCc1c(F)ccc2cc(O)cc(-c3ncc4c(NC56CC(CO)(C5)C6)nc(OC[C@@]56CCCN5C[C@H](F)C6)nc4c3F)c12 [Example 167, 5-ethyl-6-fluoro-4-(8-fluoro-2-(((2R,7aS)-2-fluorohexahydro-1H-pyrrolizin-7a-yl)methoxy)-4-((3-(hydroxymethyl)bicyclo[1.1.1]pentan-1-yl)amino)pyrido[4,3-d]pyrimidin-7-yl) naphthalen-2-ol] | 6760 | 1250 | 623
≥ 10000 | ≤ 2 | ≤ 2 | ≤ 2 | 34 |  |  |  |  | CCc1c(F)ccc2cc(O)cc(-c3ncc4c(N5CCC[C@]6(CNC(=O)C6)C5)nc(OC[C@]56CCCN5C[C@@H](O)C6)nc4c3F)c12 [Example 206] | 6960 | 3330 | 3380
6800 |  |  |  | 57 |  |  |  |  | CCc1c(F)ccc2cc(O)cc(-c3ncc4c(N5CCCC(CO)C5)nc(OC[C@@]56CCCN5C[C@H](F)C6)nc4c3F)c12 (stereo partly drawn) [Example 306, 5-ethyl-6-fluoro-4-(8-fluoro-2-(((2R,7aS)-2-fluorohexahydro-1H-pyrrolizin-7a-yl)methoxy)-4-(3-(hydroxymethyl)piperidin-1-yl)pyrido[4,3-d]pyrimidin-7-yl)naphthalen-2-ol] | 405 | 461 | 306
3340 | 3 | ≤ 2 | ≤ 2 | 13 |  |  |  |  | C#Cc1c(F)ccc2cc(O)cc(-c3ncc4c(N5CCC[C@](C)(O)C5)nc(OC[C@@]56CCCN5C[C@H](F)C6)nc4c3F)c12 [Example 10] | 297 |  | 
≥ 10000 |  |  |  | 108 |  |  |  |  | CCc1c(F)ccc2cc(O)cc(-c3ncc4c(N5C[C@H](O)CC[C@@H]5C)nc(OC[C@@]56CCCN5C[C@H](F)C6)nc4c3F)c12 [Example 186] | 1590 | 1060 | 592
6900 |  |  |  | 5 |  |  |  |  | CCc1c(F)ccc2cc(O)cc(-c3ncc4c(N5C[C@H](O)CC[C@H]5C)nc(OC[C@@]56CCCN5C[C@H](F)C6)nc4c3F)c12 [Example 182] | 547 | 355 | 157

More lines, now with the values behind:

Structure (SMILES) | IC50 (pERK in PSN1 cells) [nM] | IC50 (KRas G12R) [nM] | IC50 (KRas G12D) [nM] | IC50 (KRas G12V) [nM] | IC50 (pERK in MKN1 cells) [nM] | IC50 (KRas G12A) [nM] | IC50 (KRas G12S) [nM] | IC50 (KRas WT) [nM] | IC50 (KRas G12C) [nM] | IC50 [1] [nM] | IC50 [2] [nM] | IC50 [3] [nM]
Oc1cc(-c2ncc3c(N4CCC[C@]5(C4)C[C@H](O)C5)nc(OC[C@@]45CCCN4C[C@H](F)C5)nc3c2F)c2c(F)c(F)ccc2c1 (single isomer, unassigned) [Example 441] | 2880 | ≤ 2 | 3 | ≤ 2 | 6 |  |  |  |  | 119 | 139 | 70
CCc1c(F)ccc2cc(O)cc(-c3ncc4c(N5CCC[C@@H](O)[C@@H]5C)nc(OC[C@@]56CCCN5C[C@H](F)C6)nc4c3F)c12 [Example 185] | 4840 | 9 | 11 | 9 | 17 |  |  |  |  | 306 | 481 | 424
CCc1c(F)ccc2cc(O)cc(-c3ncc4c(N5CCCC(O)(C(F)(F)F)C5)nc(OC[C@@]56CCCN5C[C@H](F)C6)nc4c3F)c12 (stereo partly shown) [Example 183] | 4230 |  |  |  | 2 |  |  |  |  | 399 | 720 | 137
CCc1c(F)ccc2cc(O)cc(-c3ncc4c(NCCCc5cccnc5)nc(OC[C@@]56CCCN5C[C@H](F)C6)nc4c3F)c12 [Example 198, 5-ethyl-6-fluoro-4-(8-fluoro-2-(((2R,7aS)-2-fluorohexahydro-1H-pyrrolizin-7a-yl)methoxy)-4-((3-(pyridin-3-yl)propyl)amino)pyrido[4,3-d]pyrimidin-7-yl)naphthalen-2-ol] | ≥ 10000 | 8 | 86 | 9 | 183 |  |  |  |  | 2690 | 1750 | 803
OCC1COCCN(c2nc(OCC34CCCN3CCC4)nc3c(F)c(-c4cc(O)cc5ccc(F)c(F)c45)ncc23)C1 (stereo not shown) [Example 457, 5,6-difluoro-4-(8-fluoro-2-((hexahydro-1H-pyrrolizin-7a-yl)methoxy)-4-(6-(hydroxymethyl)-1,4-oxazepan-4-yl)pyrido[4,3-d]pyrimidin-7-yl)naphthalen-2-ol] |  | 10 | 31 | 6 |  |  |  |  |  |  | 3950 | 9410
CCc1c(F)ccc2cc(O)cc(-c3ncc4c(N5CC(O)CC(F)(F)C5)nc(OC[C@@]56CCCN5C[C@H](F)C6)nc4c3F)c12 (stereo partly shown) [Example 190] | 4990 | ≤ 2 |  | ≤ 2 | 11 |  |  |  |  | 189 | 272 | 62
CCc1cccc2cc3[nH]ncc3c(-c3ncc4c(N5CCC[C@@](C)(O)C5)nc(OC[C@@]56CCCN5C[C@H](F)C6)nc4c3F)c12 [Example 473, (3R)-1-(7-(5-ethyl-1H-benzo[f]indazol-4-yl)-8-fluoro-2-(((2R,7aS)-2-fluorohexahydro-1H-pyrrolizin-7a-yl)methoxy)pyrido[4,3-d]pyrimidin-4-yl)-3-methylpiperidin-3-ol] |  | 14 | 11 | 8 |  | 8 | 9 | 10 | 9 |  | 320 | 325
CCc1c(F)ccc2cc(O)cc(-c3ncc4c(NC5CN(C(N)=O)C5)nc(OC[C@@]56CCCN5C[C@H](F)C6)nc4c3F)c12 [Example 310, 3-((7-(8-ethyl-7-fluoro-3-hydroxynaphthalen-1-yl)-8-fluoro-2-(((2R,7aS)-2-fluorohexahydro-1H-pyrrolizin-7a-yl)methoxy)pyrido[4,3-d]pyrimidin-4-yl)amino)azetidine-1-carboxamide] |  | ≤ 2 | 8 | ≤ 2 |  |  |  |  |  | ≥ 10000 | 3370 | 3790
CCc1c(F)ccc2cc(O)cc(-c3ncc4c(N5CC[C@H](F)[C@@H](O)C5)nc(OC[C@@]56CCCN5C[C@H](F)C6)nc4c3F)c12 [Example 179] | 6960 |  |  |  | 10 |  |  |  |  | 785 | 675 | 274
CCc1c(F)ccc2cc(O)cc(-c3ncc4c(N5CCC[C@@](C)(O)C5)nc(OC[C@@H]5C[C@@H](OC(=O)NC)CN5C)nc4c3F)c12 [Example 12, (3R,5S)-5-(((7-(8-ethyl-7-fluoro-3-hydroxy)naphthalen-1-yl)-8-fluoro-4-((R)-3-hydroxy-3-methylpiperidin-1-yl)pyrido[4,3-d]pyrimidin-2-yl)oxy)methyl)-1-methylpyrrolidin-3-yl methylcarbamate] | ≥ 10000 | 4 | 3 | 3 | 26 |  |  |  |  | 497 |  | 
